Assay results taken from US20260183295A1, “METHODS AND COMPOSITIONS FOR TREATING CANCER” (Onconova Therapeutics, Inc., priority 2022, published 2026).

How the values were obtained:
[1] = tested on: pRb pSer807/811; experiment: Western blot after 2 h treatment, MDA-MB-231; type: cell-based; conditions: 5 μM, relative to DMSO control
Experimental: (§1) Following treatment, a sample of each of the three treatments was analyzed by Western Blot for expression of phosphoprotein targets.

[2] = tested on: pRb; experiment: Western blot after 2 h treatment, MDA-MB-231; type: cell-based; conditions: 5 μM, relative to DMSO control
Experimental: as §1

[3] = tested on: BT-474; experiment: MTT cell viability, 48 hours; type: cell-based; conditions: Homo sapiens, BT-474 (HR+ HER2+), read-out: 48 h-cell viability decrease
Experimental: (§2) A panel of […] breast cancer cell lines: T-47D, BT-474, MDA-MB-453, MDA-MB-468, HCC-1937, Hs578T, and MDA-MB-231, was treated for 48 hours with 5 μM Compound 1 and the cell viability was measured using the MTT assay. TABLE 6 summarizes the cell lines, and the change in viability after 48 hours of treatment with Compound 1.

[4] = tested on: MDA-MB-231; experiment: MTT cell viability, 48 hours; type: cell-based; conditions: Homo sapiens, MDA-MB-231 (TNBC), read-out: 48 h-cell viability decrease
Experimental: as §2

[5] = tested on: T-47D, HCC-1937, HS-578T, BT-474, MDA-MB-468, and MD-MB-453 cell lines; experiment: MTT cell viability of breast cancer cell line panel versus comparators, 48 hrs (FIG. 17); type: cell-based
[6] = tested on: PARP in HCC-1937; experiment: PARP cleavage after 72 hours treatment; type: cell-based; conditions: HCC-1937 (TNBC)
Experimental: (§3) The effects on the different treatment conditions on BUB 1 levels and PARP cleavage were also assessed. For both MNA-MB-231 cells, Compound 1 alone or with HCQ or SBI decreased BUB1 levels and cleaved PARP with […] decreases in cell viability observed for all treatments except Compound 1+SBI in MMA-MB-231 cells. The effects of Compound 1 with or without autophagy inhibitors was less pronounced in HCC-1937 cells.

[7] = tested on: PARP in MDA-MB-231; experiment: PARP cleavage after 72 hours treatment; type: cell-based; conditions: MDA-MB-231 (TNBC)
Experimental: as §3

[8] = tested on: PARP in MDA-MB-468; experiment: PARP cleavage after 72 hours treatment; type: cell-based; conditions: MDA-MB-468 (TNBC)
Experimental: as §3

[9] = tested on: Hs578T spheroids; experiment: Spheroid imaging (Hoechst, F-actin); type: cell-based; conditions: 5 μM, compared to DMSO, Comparator 1 and Comparator 2 (FIG. 18)
[10] = tested on: Cyclin D1; experiment: Western blot, MDA-MB-231 cells, 24 hours; type: cell-based; conditions: 2.5, 5, 10 μM, versus Comparator 1, 2 and 4
[11] = tested on: Caspase 3/7; experiment: Caspase 3/7 Glo assay, MDA-MB-231 cells, 24 hours; type: cell-based
Experimental: To determine how Compound 1 induces cell death, Caspase 3/7 activity was measured using the Caspase 3/7 Glo assay.
The effect of zVAD-FMK treatment on Caspase 3/7 activity was assessed.

[12] = tested on: Caspase 3/7; experiment: Caspase 3/7 Glo assay with or without bafilomycin A1, MDA-MB-231 cells, 2 days; type: cell-based; conditions: 5 μM
From the text: FIGS. 34 and 35 show Caspase 3/7 activity as measured by the Caspase 3/7 Glo assay. […] The effect was enhanced by co-treatment with bafilomycin A1 cotreatment.

[13] = tested on: CCL5; experiment: qPCR of T-cell recruiting chemokine mRNA, PyMT cells; type: cell-based, mouse
[14] = molecular target: T1, CDK4/cyclin D1 (Homo sapiens, UniProt P11802); experiment: CDK4/cyclin D1 In Vitro IC50; type: biochemical
Experimental: Substrate was prepared in freshly prepared base reaction buffer. Any required cofactors were delivered to the substrate solution above. Indicated kinase was delivered into the substrate solution and the solution was gently mixed. Compounds were delivered in 100% DMSO into the kinase reaction mixture by Acoustic technology (Echo550; nanoliter range) and incubated for 20 minutes at room temperature. 33P-ATP was delivered into the reaction mixture to initiate the reaction. The kinase reaction was incubated for 2 hours at room temperature. Kinase activity was detected by P81 filter-binding method.
Target sequence in this assay (P11802 whole entry): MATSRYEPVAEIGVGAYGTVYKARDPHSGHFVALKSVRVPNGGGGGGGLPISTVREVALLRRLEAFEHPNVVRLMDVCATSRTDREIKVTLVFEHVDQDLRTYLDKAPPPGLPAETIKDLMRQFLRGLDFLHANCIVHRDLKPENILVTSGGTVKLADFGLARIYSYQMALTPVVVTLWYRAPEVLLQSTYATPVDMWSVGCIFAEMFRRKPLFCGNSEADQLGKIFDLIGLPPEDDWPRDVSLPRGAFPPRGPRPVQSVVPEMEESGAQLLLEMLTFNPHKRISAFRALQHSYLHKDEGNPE
Target sequence in this assay (P24385 whole entry partner): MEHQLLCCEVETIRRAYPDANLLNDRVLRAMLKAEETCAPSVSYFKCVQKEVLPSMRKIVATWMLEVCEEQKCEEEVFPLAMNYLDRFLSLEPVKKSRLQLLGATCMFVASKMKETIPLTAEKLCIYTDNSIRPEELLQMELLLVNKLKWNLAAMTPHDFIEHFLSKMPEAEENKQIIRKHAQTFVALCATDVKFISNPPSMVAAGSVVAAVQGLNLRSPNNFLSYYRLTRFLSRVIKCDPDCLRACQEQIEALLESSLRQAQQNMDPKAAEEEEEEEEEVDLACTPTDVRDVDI

[15] = molecular target: T1, CDK4/cyclin D1; experiment: CDK4/cyclin D1 In Vitro Kd, kinase binding assay (qPCR)
Experimental: Kinase-tagged T7 phage strains were prepared in an E. coli host derived from the BL21 strain. E. coli were grown to log-phase and infected with T7 phage and incubated with shaking at 32° C. until lysis. […] The remaining kinases were produced in HEK-293 cells and subsequently tagged with DNA for qPCR detection. […] The liganded beads were blocked with excess biotin and washed with blocking buffer (SeaBlock (Pierce), 1% BSA, 0.05% Tween 20, 1 mM DTT) to remove unbound ligand and to reduce non-specific binding. […] Test compounds were prepared as 111× stocks in 100% DMSO. Kds were determined using an 11-point 3-fold compound dilution series with three DMSO control points. […] The compounds were then diluted directly into the assays such that the final concentration of DMSO was 0.9%. All reactions performed in polypropylene 384-well plate. Each was a final volume of 0.02 ml. […] The kinase concentration in the eluates was measured by qPCR. […] Curves were fitted using a non-linear least square fit with the Levenberg-Marquardt algorithm.
Target sequence in this assay (P11802 whole entry): as the sequence (P11802 whole entry) above
Target sequence in this assay (P24385 whole entry partner): as the sequence (P24385 whole entry partner) above

[16] = molecular target: T1, CDK4/cyclin D1; experiment: CDK4/cyclin D1 CETSA; type: cell-based; design: endogenous in cells; host or cells: MDA-MB-231 (lysates and intact cells)
Experimental: Following treatment, cell lysates were thermally treated in a thermal gradient profile across a temperature range. Following the thermal shift, cell lysates were spun by centrifuge to pellet aggregate protein and the supernatant withdrawn. The supernatant was then denatured in buffer and heated to denature, reduce, and alkylate the supernatant proteins. Following heating and cooling to room temperature, cold acetone was added to the supernatant samples and proteins precipitated.
TNBC MDA-MB-231 cells were grown at 37° C. in 5% CO2 and suspended in warm media and split into 4 equal volumes. […] Cells were incubated and then pelleted. Following pelleting, the cells were washed, resuspended, and heated in a thermal gradient. Following heating, the samples were flash frozen and lysed in lysis buffer, agitated by vortex, and sonicated prior to centrifugation. The supernatant was collected and denaturation buffer added. Cold acetone was then added to the cell samples, and protein collected by centrifugation. […]
The intact cell protein samples and lysate protein samples were then digested and labeled for mass spectrometry analysis according to the manufacturer's recommended protocols. Digested and labeled protein samples were analyzed by mass spectrometry proteomic analysis and the resulting protein targets were analyzed and plotted.
Target sequence in this assay (P11802 whole entry): as the sequence (P11802 whole entry) above

CN1CCN(c2ccc(Nc3ncc4cc(C#N)c(=O)n(C5CCCC5)c4n3)cc2)CC1 [Compound 1, 8-cyclopentyl-2-((4-(4-methylpiperazin-1-yl)phenyl)amino)-7-oxo-7,8-dihydropyrido[2,3-d]pyrimidine-6-carbonitrile]
phosphorylation of pRb at Ser807/811 [1]: decreased phosphorylation | pRb levels [2]: decreased pRb levels | cytotoxicity at 5 µM [3]: 50% | cytotoxicity at 5 µM [4]: 60% | dose dependence of cell death (MTT) ([5]; 2.5, 5.0, 10 μM, HCC-1937, Hs-578T, BT-474, MDA-MB-468, MDA-MB-453): dose-dependent effect | cell death (MTT), comparison of treatments ([5]; Comparator 4 10 μM, Comparator 1 and 2 5 μM, Compound 1 2.5, 5.0, 10 μM): greater potency in inducing cell death compared to both Comparator 1 and Comparator 2 | PARP Cleavage [6]: No | PARP Cleavage [7]: Yes | PARP Cleavage [8]: Yes | spheroid size [9]: small decrease in spheroid size | Cyclin D1 levels [10]: decreasing | Caspase 3/7 activity ([11]; Compound 1, Comparator 1, 2 5 μM, Comparator 4 10 μM (FIG. 22)): modest increase | Caspase 3/7 activity ([11]; without zVAD-FMK, relative to DMSO (FIG. 26)): small increase | effect of zVAD-FMK on induced Caspase 3/7 activity ([11]; zVAD-FMK 20 μM (FIG. 26)): inhibited by zVAD-FMK treatment | Caspase 3/7 activity, compound alone [12]: increased Caspase 3/7 activity | effect of bafilomycin A1 cotreatment on Caspase 3/7 activity [12]: enhanced | time of peak CCL5 mRNA levels [13]: ~48 h | CCL5 mRNA levels ([13]; 24, 48 and 72 hours): large increase | IC50 [14]: 2 nM | Kd [15]: 0.18 nM | CETSA [16]: POS
